Measurements: patent US9695155B2, “Herbicidal substituted pyrimidinyloxy benzene compounds” (E. I. DU PONT DE NEMOURS AND COMPANY, priority 2013, dated 2017)

Tests used:
wild mustard = test: Test D postemergence; type: in vivo, Sinapis arvensis; conditions: Brassica, post-emergence
How it was run: (§1)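 Species were sown in silt loam for preemergence treatment, or grown in peat-based medium to the 1–4-leaf stage (2–18 cm) for postemergence sprays. Test chemicals were formulated in a non-phytotoxic solvent mixture with surfactant. After 7–21 days in a controlled environment, plants were rated visually against controls on a 0 (no effect) to 100 (complete control) scale.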

crabgrass, naked = test: Test F preemergence; type: in vivo, Digitaria nuda; conditions: 21 days, scale 0 to 100
Description: (§2) Seeds of plant species selected from bermudagrass (Cynodon dactylon), surinam grass (Brachiaria decumbens), large (Lg) crabgrass (Digitaria sanguinalis), crabgrass, naked (naked crabgrass, Digitaria nuda), foxtail, green (green foxtail, Setaria viridis), johnsongrass (Sorghum halepense), kochia (Kochia scoparia), morningglory (pitted morningglory, Ipomoea lacunosa), nutsedge, purple (purple nutsedge, Cyperus rotundus), ragweed (common ragweed, Ambrosia elatior), mustard, black (black mustard, Brassica nigra), guineagrass (Panicum maximum), dallisgrass (Paspalum dilatatum), barnyardgrass (Echinochloa crus-galli), sandbur (southern sandbur, Cenchrus echinatus), sowthistle (common sowthistle, Sonchus oleraceous), Italian ryegrass (Lolium multiflorum), signalgrass (broadleaf signalgrass, Brachiaria platyphylla), dayflower (Virginia (VA) dayflower, Commelina virginica), bluegrass (annual bluegrass, Poa annua), quackgrass (Elytrigia repens), mallow (common mallow, Malva sylvestris), buckwheat, wild (wild buckwheat, Polygonum convolvulus), leafy spurge (Euphorbia esula), chickweed (common chickweed, Stellaria media), wild poinsettia (Euphorbia heterophylla), and pigweed (Amaranthus retroflexus) were planted into a blend of loam soil and sand and treated preemergence with test chemicals formulated in a non-phytotoxic solvent mixture which included a surfactant.
(§3) Treated plants and controls were maintained in a greenhouse for 21 days, after which time all species were compared to controls and visually evaluated. Plant response ratings, summarized in Table F, are based on a scale of 0 to 100 where 0 is no effect and 100 is complete control. A dash (-) response means no test result.

field poppy = test: Test D preemergence; type: in vivo, Papaver rhoeas; conditions: Papaver rhoeas, pre-emergence
How it was run: as §1

bluegrass = test: Test F preemergence; type: in vivo, Poa annua; conditions: 21 days, scale 0 to 100
How it was run: (§4)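 Preemergence application to seeded loam–sand soil, with compound delivered in a non-phytotoxic solvent plus surfactant; weed control assessed visually at 21 days (0–100 scale).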

field violet = test: Test D preemergence; type: in vivo, Viola arvensis; conditions: Viola arvensis, pre-emergence
How it was run: as §1

large (Lg) crabgrass = test: Test F preemergence; type: in vivo, Digitaria sanguinalis; conditions: 21 days, scale 0 to 100
Description: as §2, §3

bromegrass, downy = test: Test D postemergence; type: in vivo, Bromus tectorum; conditions: Bromus tectorum, post-emergence, Postemergence, scale 0 to 100 (0 no effect, 100 complete control), read-out: Plant response rating, Bromegrass, Downy
How it was run: as §1

kochia = test: Test D postemergence; type: in vivo, Kochia scoparia; conditions: Bassia scoparia, post-emergence
How it was run: as §1

deadnettle = test: Test D postemergence; type: in vivo, Lamium amplexicaule; conditions: Lamium amplexicaule, post-emergence
How it was run: as §1

leafy spurge = test: Test F preemergence; type: in vivo, Euphorbia esula; conditions: 21 days, scale 0 to 100
How it was run: as §4

canarygrass = test: Test D postemergence; type: in vivo, Phalaris minor; conditions: Phalaris minor, post-emergence
How it was run: as §1

[1] = system: morningglory (pitted morningglory); test: Test F preemergence; type: in vivo, Ipomoea lacunosa; conditions: 21 days, scale 0 to 100
How it was run: as §4

chamomile = test: Test D postemergence; type: in vivo, Matricaria inodora; conditions: Tripleurospermum inodorum, post-emergence
How it was run: as §1

windgrass = test: Test D preemergence; type: in vivo, Apera spica-venti; conditions: Apera spica-venti, pre-emergence
How it was run: as §1

Structure (SMILES): N#Cc1cccc(Oc2ncc(Cl)cn2)c1-n1cc(OCC(F)(F)F)cn1 [Compound 274, 3-[(5-chloro-2-pyrimidinyl)oxy]-2-[4-(2,2,2-trifluoroethoxy)-1H-pyrazol-1-yl]benzonitrile]
- pest or weed control at 16 g/ha (wild mustard; 16 g ai/ha, scale 0-100, read-out: Plant response rating, Mustard, Wild): 70%
- pest or weed control at 31 g/ha (wild mustard; 31 g ai/ha, scale 0 to 100 (0 no effect, 100 complete control), read-out: Plant response rating, Mustard, Wild): 75%
- pest or weed control at 62 g/ha (wild mustard; 62 g ai/ha, scale 0 to 100 (0 no effect, 100 complete control), read-out: Plant response rating, Mustard, Wild): 100%
- pest or weed control at 125 g/ha (wild mustard; 125 g ai/ha, scale 0 to 100 (0 no effect, 100 complete control), read-out: Plant response rating, Mustard, Wild): 100%
- Plant response rating, Crabgrass, Naked (crabgrass, naked; 16 g ai/ha): 100
- Plant response rating, Crabgrass, Naked (crabgrass, naked; 31 g ai/ha): 100
- Plant response rating, Crabgrass, Naked (crabgrass, naked; 62 g ai/ha): 100
- Plant response rating, Crabgrass, Naked (crabgrass, naked; 125 g ai/ha): 100
- Plant response rating, Crabgrass, Naked (crabgrass, naked; 250 g ai/ha): 100
- pest or weed control at 16 g/ha (field poppy; 16 g ai/ha, scale 0 (no effect) to 100 (complete control), read-out: Plant response rating, Field Poppy): 75%
- pest or weed control at 31 g/ha (field poppy; 31 g ai/ha, scale 0-100, read-out: Plant response rating, Field Poppy): 100%
- pest or weed control at 62 g/ha (field poppy; 62 g ai/ha, scale 0-100, read-out: Plant response rating, Field Poppy): 100%
- pest or weed control at 125 g/ha (field poppy; 125 g ai/ha, scale 0-100, read-out: Plant response rating, Field Poppy): 100%
- Plant response rating, Bluegrass (bluegrass; 16 g ai/ha): 0
- Plant response rating, Bluegrass (bluegrass; 31 g ai/ha): 20
- Plant response rating, Bluegrass (bluegrass; 62 g ai/ha): 50
- Plant response rating, Bluegrass (bluegrass; 125 g ai/ha): 85
- Plant response rating, Bluegrass (bluegrass; 250 g ai/ha): 100
- pest or weed control at 16 g/ha (field violet; 16 g ai/ha, scale 0 (no effect) to 100 (complete control), read-out: Plant response rating, Field Violet): 75%
- pest or weed control at 31 g/ha (field violet; 31 g ai/ha, scale 0-100, read-out: Plant response rating, Field Violet): 100%
- pest or weed control at 62 g/ha (field violet; 62 g ai/ha, scale 0-100, read-out: Plant response rating, Field Violet): 100%
- pest or weed control at 125 g/ha (field violet; 125 g ai/ha, scale 0-100, read-out: Plant response rating, Field Violet): 100%
- Plant response rating, Crabgrass, Large (large (Lg) crabgrass; 16 g ai/ha): 100
- Plant response rating, Crabgrass, Large (large (Lg) crabgrass; 31 g ai/ha): 100
- Plant response rating, Crabgrass, Large (large (Lg) crabgrass; 62 g ai/ha): 100
- Plant response rating, Crabgrass, Large (large (Lg) crabgrass; 125 g ai/ha): 100
- Plant response rating, Crabgrass, Large (large (Lg) crabgrass; 250 g ai/ha): 100
- pest or weed control at 16 g/ha (bromegrass, downy; 16 g ai/ha): 20%
- pest or weed control at 31 g/ha (bromegrass, downy; 31 g ai/ha): 25%
- pest or weed control at 62 g/ha (bromegrass, downy; 62 g ai/ha): 35%
- pest or weed control at 125 g/ha (bromegrass, downy; 125 g ai/ha): 40%
- pest or weed control at 16 g/ha (kochia; 16 g ai/ha, scale 0-100, read-out: Plant response rating, Kochia): 60%
- pest or weed control at 31 g/ha (kochia; 31 g ai/ha, scale 0 to 100 (0 no effect, 100 complete control), read-out: Plant response rating, Kochia): 70%
- pest or weed control at 62 g/ha (kochia; 62 g ai/ha, scale 0 to 100 (0 no effect, 100 complete control), read-out: Plant response rating, Kochia): 90%
- pest or weed control at 125 g/ha (kochia; 125 g ai/ha, scale 0 to 100 (0 no effect, 100 complete control), read-out: Plant response rating, Kochia): 95%
- pest or weed control at 16 g/ha (deadnettle; 16 g ai/ha, scale 0-100, read-out: Plant response rating, Deadnettle): 50%
- pest or weed control at 31 g/ha (deadnettle; 31 g ai/ha, scale 0 to 100 (0 no effect, 100 complete control), read-out: Plant response rating, Deadnettle): 45%
- pest or weed control at 62 g/ha (deadnettle; 62 g ai/ha, scale 0 to 100 (0 no effect, 100 complete control), read-out: Plant response rating, Deadnettle): 60%
- pest or weed control at 125 g/ha (deadnettle; 125 g ai/ha, scale 0 to 100 (0 no effect, 100 complete control), read-out: Plant response rating, Deadnettle): 70%
- Plant response rating, Leafy Spurge (leafy spurge; 16 g ai/ha): 100
- Plant response rating, Leafy Spurge (leafy spurge; 31 g ai/ha): 98
- Plant response rating, Leafy Spurge (leafy spurge; 62 g ai/ha): 100
- Plant response rating, Leafy Spurge (leafy spurge; 125 g ai/ha): 100
- Plant response rating, Leafy Spurge (leafy spurge; 250 g ai/ha): 100
- pest or weed control at 16 g/ha (canarygrass; 16 g ai/ha, scale 0-100, read-out: Plant response rating, Canarygrass): 15%
- pest or weed control at 31 g/ha (canarygrass; 31 g ai/ha, scale 0 to 100 (0 no effect, 100 complete control), read-out: Plant response rating, Canarygrass): 20%
- pest or weed control at 62 g/ha (canarygrass; 62 g ai/ha, scale 0 to 100 (0 no effect, 100 complete control), read-out: Plant response rating, Canarygrass): 25%
- pest or weed control at 125 g/ha (canarygrass; 125 g ai/ha, scale 0 to 100 (0 no effect, 100 complete control), read-out: Plant response rating, Canarygrass): 30%
- Plant response rating, Morningglory ([1]; 16 g ai/ha): 35
- Plant response rating, Morningglory ([1]; 31 g ai/ha): 50
- Plant response rating, Morningglory ([1]; 62 g ai/ha): 65
- Plant response rating, Morningglory ([1]; 125 g ai/ha): 98
- Plant response rating, Morningglory ([1]; 250 g ai/ha): 100
- pest or weed control at 16 g/ha (chamomile; 16 g ai/ha, scale 0-100, read-out: Plant response rating, Chamomile): 5%
- pest or weed control at 31 g/ha (chamomile; 31 g ai/ha, scale 0 to 100 (0 no effect, 100 complete control), read-out: Plant response rating, Chamomile): 10%
- pest or weed control at 62 g/ha (chamomile; 62 g ai/ha, scale 0 to 100 (0 no effect, 100 complete control), read-out: Plant response rating, Chamomile): 25%
- pest or weed control at 125 g/ha (chamomile; 125 g ai/ha, scale 0 to 100 (0 no effect, 100 complete control), read-out: Plant response rating, Chamomile): 25%
- pest or weed control at 16 g/ha (windgrass; 16 g ai/ha, scale 0 (no effect) to 100 (complete control), read-out: Plant response rating, Windgrass): 20%
- pest or weed control at 31 g/ha (windgrass; 31 g ai/ha, scale 0 (no effect) to 100 (complete control), read-out: Plant response rating, Windgrass): 90%
- pest or weed control at 125 g/ha (windgrass; 125 g ai/ha, scale 0-100, read-out: Plant response rating, Windgrass): 100%
